Legend:
Assay type in all cases: binding
KRAS G12S = molecular target: T1, KRAS G12S (Homo sapiens, UniProt P01116, G12S); assay: HTRF assay of K-Ras G12S interaction with SOS1 (PPI-HTRF); details: 5 nM KRAS G12S, read-out: PPI-HTRF-5 nM KRAS G12S
T1 construct: made in house; host or cells: E. coli, e.g. BL21 (DE3)
Outline: (§1)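 HTRF on GST-K-Ras/His-hSOS1 was measured after ≥10 min in pH 7.4 HEPES buffer. IC50 values were derived from the ratiometric emission signal.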

KRAS WT = molecular target: T2, KRAS WT (Homo sapiens, UniProt P01116); assay: HTRF assay of wildtype K-Ras interaction with SOS1 (PPI-HTRF); details: HTRF, 5 nM KRAS WT; read-out: PPI-HTRF-5 nM KRAS WT
T2 construct: made in house; host or cells: E. coli, e.g. BL21 (DE3)
T2 sequence (P01116 1-188 isoform P01116-2): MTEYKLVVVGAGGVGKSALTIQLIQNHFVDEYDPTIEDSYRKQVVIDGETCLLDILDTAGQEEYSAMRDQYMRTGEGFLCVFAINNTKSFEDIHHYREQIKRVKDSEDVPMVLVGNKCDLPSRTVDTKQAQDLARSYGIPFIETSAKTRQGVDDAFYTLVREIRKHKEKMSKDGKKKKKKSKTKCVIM
Outline: as §1

KRAS G12D = molecular target: T3, KRAS G12D (Homo sapiens, UniProt P01116, G12D); assay: HTRF assay of K-Ras G12D interaction with SOS1 (PPI-HTRF); details: HTRF, 5 nM KRAS G12D; read-out: PPI-HTRF-5 nM KRAS G12D
T3 construct: made in house; host or cells: E. coli, e.g. BL21 (DE3)
T3 sequence (P01116 1-188 isoform P01116-2 G12D): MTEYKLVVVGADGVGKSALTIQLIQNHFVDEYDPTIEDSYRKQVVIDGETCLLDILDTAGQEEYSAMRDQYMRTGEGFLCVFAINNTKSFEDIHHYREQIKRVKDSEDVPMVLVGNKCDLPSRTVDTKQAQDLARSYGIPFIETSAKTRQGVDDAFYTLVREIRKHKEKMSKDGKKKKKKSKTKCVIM
Outline: as §1

T1 sequence (P01116 1-188 isoform P01116-2 G12S): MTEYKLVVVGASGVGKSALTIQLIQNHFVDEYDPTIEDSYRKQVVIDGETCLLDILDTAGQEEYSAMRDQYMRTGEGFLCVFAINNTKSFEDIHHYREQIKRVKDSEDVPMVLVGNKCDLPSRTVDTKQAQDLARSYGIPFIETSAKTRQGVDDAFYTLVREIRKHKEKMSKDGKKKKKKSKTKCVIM

| Structure (SMILES) | IC50 (KRAS G12S) [µM] | IC50 (KRAS WT) [µM] | IC50 (KRAS G12D) [µM] |
| --- | --- | --- | --- |
| COCc1ncn(C(=O)N2CCC23CCN(c2nc(OC[C@@]45CCCN4C[C@H](F)C5)nc4c(F)c(-c5ccc(F)c6sc(N)c(C#N)c56)c(Cl)cc24)C3)n1 (stereo partly drawn) [Compound 313, 2-amino-4-(6-chloro-8-fluoro-2-(((2R,7aS)-2-fluorotetrahydro-1H-pyrrolizin-7a(5H)-yl)methoxy)-4-(1-(3-(methoxymethyl)-1H-1,2,4-triazole-1-carbonyl)-1,6-diazaspiro[3.4]octan-6-yl)quinazolin-7-yl)-7-fluorobenzo[b]thiophene-3-carbonitrile] | < 5 | < 5 | < 5 |
| Cc1nc(C(C)C)nn1C(=O)N1CCC12CCN(c1nc(OC[C@@]34CCCN3C[C@H](F)C4)nc3c(F)c(-c4ccc(F)c5sc(N)c(C#N)c45)c(Cl)cc13)C2 (stereo partly drawn) [Compound 266, 2-amino-4-(6-chloro-8-fluoro-2-(((2R,7aS)-2-fluorotetrahydro-1H-pyrrolizin-7a(5H)-yl)methoxy)-4-(1-(3-isopropyl-5-methyl-1H-1,2,4-triazole-1-carbonyl)-1,6-diazaspiro[3.4]octan-6-yl)quinazolin-7-yl)-7-fluorobenzo[b]thiophene-3-carbonitrile] | < 5 | < 5 | < 5 |
| Nc1nc2c(-c3c(Cl)cc4c(N5CCCC6(CCN6)CC5)nc(OC[C@@]56CCCN5C[C@H](F)C6)nc4c3F)ccc(F)c2s1 (stereo partly drawn) [Compound 276, 4-(6-chloro-8-fluoro-2-(((2R,7aS)-2-fluorotetrahydro-1H-pyrrolizin-7a(5H)-yl)methoxy)-4-(1,7-diazaspiro[3.6]decan-7-yl)quinazolin-7-yl)-7-fluorobenzo[d]thiazol-2-amine] | < 5 | < 5 | < 5 |
| N#Cc1c(N)sc2c(F)ccc(-c3c(Cl)cc4c(N5CC[C@@]6(CCN6C(=O)n6cnc(F)n6)C5)nc(OC[C@@]56CCCN5C[C@H](F)C6)nc4c3F)c12 (atropisomer, axis not shown; (aS)) [Compound 281, (R)-2-amino-4-(6-chloro-8-fluoro-4-((R)-1-(3-fluoro-1H-1,2,4-triazole-1-carbonyl)-1,6-diazaspiro[3.4]octan-6-yl)-2-(((2R,7aS)-2-fluorotetrahydro-H-pyrrolizin-7a(5H)-yl)methoxy)quinazolin-7-yl)-7-fluorobenzo[b]thiophene-3-carbonitrile] | < 5 | < 5 | < 5 |
| C[C@H](Oc1nc(N2CC[C@@]3(CCN3C(=O)n3cncn3)C2)c2cc(Cl)c(-c3ccc(F)c4sc(N)c(C#N)c34)c(F)c2n1)[C@@H]1CCCN1C (single isomer, unassigned) [Compound 299] | < 5 | < 5 | < 5 |
| N#Cc1c(N)sc2c(F)ccc(-c3c(Cl)cc4c(N5CC6(CCN6C(=O)C6CC6(F)F)C5)nc(OC[C@@]56CCCN5C[C@H](F)C6)nc4c3F)c12 (stereo partly drawn) [Compound 340, 2-amino-4-(6-chloro-4-(1-(2,2-difluorocyclopropane-1-carbonyl)-1,6-diazaspiro[3.3]heptan-6-yl)-8-fluoro-2-(((2R,7aS)-2-fluorotetrahydro-1H-pyrrolizin-7a(5H)-yl)methoxy)quinazolin-7-yl)-7-fluorobenzo[b]thiophene-3-carbonitrile] | < 5 | < 5 | < 5 |
| N#Cc1c(N)sc2c(F)ccc(-c3c(Cl)cc4c(N5CCC6(CCN6C(=O)n6cc(C(F)(F)F)nn6)C5)nc(OC[C@@]56CCCN5C[C@H](F)C6)nc4c3F)c12 (stereo partly drawn) [Compound 318, 2-amino-4-(6-chloro-8-fluoro-2-(((2R,7aS)-2-fluorotetrahydro-1H-pyrrolizin-7a(5H)-yl)methoxy)-4-(1-(4-(trifluoromethyl)-1H-1,2,3-triazole-1-carbonyl)-1,6-diazaspiro[3.4]octan-6-yl)quinazolin-7-yl)-7-fluorobenzo[b]thiophene-3-carbonitrile] | < 5 | < 5 | < 5 |
| N#Cc1c(N)sc2c(F)ccc(-c3c(Cl)cc4c(N5CCCC6(CCN6C(=O)n6cncn6)C5)nc(OC[C@@]56CCCN5C[C@H](F)C6)nc4c3F)c12 (stereo partly drawn) [Compound 275, 4-(4-(1-(1H-1,2,4-triazole-1-carbonyl)-1,6-diazaspiro[3.5]nonan-6-yl)-6-chloro-8-fluoro-2-(((2R,7aS)-2-fluorotetrahydro-1H-pyrrolizin-7a(5H)-yl)methoxy)quinazolin-7-yl)-2-amino-7-fluorobenzo[b]thiophene-3-carbonitrile] | < 5 | < 5 | < 5 |
| C[C@H]1CN[C@]12CCN(c1nc(OC[C@@]34CCCN3C[C@H](F)C4)nc3c(F)c(-c4ccc(F)c5sc(N)c(C#N)c45)c(Cl)cc13)C2 [Compound 334, 2-amino-4-(6-chloro-8-fluoro-2-(((2R,7aS)-2-fluorotetrahydro-1H-pyrrolizin-7a(5H)-yl)methoxy)-4-((3S,4R)-3-methyl-1,6-diazaspiro[3.4]octan-6-yl)quinazolin-7-yl)-7-fluorobenzo[b]thiophene-3-carbonitrile] | < 5 | < 5 | < 5 |
| C[C@H](Oc1nc(N2CCC3(CCN3C(=O)C3CC3(F)F)C2)c2cc(Cl)c(-c3ccc(F)c4sc(N)c(C#N)c34)c(F)c2n1)[C@@H]1CCCN1C (stereo partly drawn) [Compound 280, 2-amino-4-(6-chloro-4-(1-(2,2-difluorocyclopropane-1-carbonyl)-1,6-diazaspiro[3.4]octan-6-yl)-8-fluoro-2-((S)-1-((S)-1-methylpyrrolidin-2-yl)ethoxy)quinazolin-7-yl)-7-fluorobenzo[b]thiophene-3-carbonitrile] | < 5 | < 5 | < 5 |
| Nc1nc2c(-c3c(Cl)cc4c(N5CCCC6(CCCN6)C5)nc(OC[C@@]56CCCN5C[C@H](F)C6)nc4c3F)ccc(F)c2s1 (stereo partly drawn) [Compound 219, 4-(6-chloro-8-fluoro-2-(((2R,7aS)-2-fluorotetrahydro-1H-pyrrolizin-7a(5H)-yl)methoxy)-4-(1,7-diazaspiro[4.5]decan-7-yl)quinazolin-7-yl)-7-fluorobenzo[d]thiazol-2-amine] | < 5 | < 5 | < 5 |
| CN(C)C1CN(c2nc(N3CCC4(CCN4C(=O)n4cncn4)C3)c3cc(Cl)c(-c4ccc(F)c5sc(N)c(C#N)c45)c(F)c3n2)C1 (stereo not drawn) [Compound 203, 4-(4-(1-(1H-1,2,4-triazole-1-carbonyl)-1,6-diazaspiro[3.4]octan-6-yl)-6-chloro-2-(3-(dimethylamino)azetidin-1-yl)-8-fluoroquinazolin-7-yl)-2-amino-7-fluorobenzo[b]thiophene-3-carbonitrile] | < 5 | < 5 | > 5 |
| N#Cc1c(N)sc2c(F)ccc(-c3c(Cl)cc4c(N5CCC6(CCN6C(=O)CCl)C5)nc(OC[C@@]56CCCN5C[C@H](F)C6)nc4c3F)c12 (stereo partly drawn) [Compound 294, 2-amino-4-(6-chloro-4-(1-(2-chloroacetyl)-1,6-diazaspiro[3.4]octan-6-yl)-8-fluoro-2-(((2R,7aS)-2-fluorotetrahydro-1H-pyrrolizin-7a(5H)-yl)methoxy)quinazolin-7-yl)-7-fluorobenzo[b]thiophene-3-carbonitrile] | < 5 | < 5 | < 5 |
| Nc1nc2c(-c3c(Cl)cc4c(NC5CC6(CCN6)C5)nc(OC[C@@]56CCCN5C[C@H](F)C6)nc4c3F)ccc(F)c2s1 (stereo partly drawn) [Compound 230, 4-(4-((1-azaspiro[3.3]heptan-6-yl)amino)-6-chloro-8-fluoro-2-(((2R,7aS)-2-fluorotetrahydro-1H-pyrrolizin-7a(5H)-yl)methoxy)quinazolin-7-yl)-7-fluorobenzo[d]thiazol-2-amine] | < 5 | < 5 | < 5 |
| N#Cc1c(N)sc2c(F)ccc(-c3c(Cl)cc4c(N5CCC6(CCN6C(=O)n6cnc(Cl)n6)C5)nc(OC[C@@]56CCCN5C[C@H](F)C6)nc4c3F)c12 (stereo partly drawn) [Compound 312, 2-amino-4-(6-chloro-4-(1-(3-chloro-1H-1,2,4-triazole-1-carbonyl)-1,6-diazaspiro[3.4]octan-6-yl)-8-fluoro-2-(((2R,7aS)-2-fluorotetrahydro-1H-pyrrolizin-7a(5H)-yl)methoxy)quinazolin-7-yl)-7-fluorobenzo[b]thiophene-3-carbonitrile] | < 5 | < 5 | < 5 |
| N#Cc1cn(C(=O)N2CCC23CCN(c2nc(OC[C@@]45CCCN4C[C@H](F)C5)nc4c(F)c(-c5ccc(F)c6sc(N)c(C#N)c56)c(Cl)cc24)C3)cn1 (stereo partly drawn) [Compound 310, 1-(6-(7-(2-amino-3-cyano-7-fluorobenzo[b]thiophen-4-yl)-6-chloro-8-fluoro-2-(((2R,7aS)-2-fluorotetrahydro-1H-pyrrolizin-7a(5H)-yl)methoxy)quinazolin-4-yl)-1,6-diazaspiro[3.4]octane-1-carbonyl)-1H-imidazole-4-carbonitrile] | < 5 | < 5 | < 5 |
| N#Cc1c(N)sc2c(F)ccc(-c3c(Cl)cc4c(N5CCC6(CCN6C(=O)C(Cl)Cl)C5)nc(OC[C@@]56CCCN5C[C@H](F)C6)nc4c3F)c12 (stereo partly drawn) [Compound 347, 2-amino-4-(6-chloro-4-(1-(2,2-dichloroacetyl)-1,6-diazaspiro[3.4]octan-6-yl)-8-fluoro-2-(((2R,7aS)-2-fluorotetrahydro-1H-pyrrolizin-7a(5H)-yl)methoxy)quinazolin-7-yl)-7-fluorobenzo[b]thiophene-3-carbonitrile] | < 5 | < 5 | < 5 |
